This note sets out measurements from US20230089867A1, “CYCLIC PENTAMER COMPOUNDS AS PROPROTEIN CONVERTASE SUBTILISIN/KEXIN TYPE 9 (PCSK9) INHIBITORS FOR THE TREATMENT OF METABOLIC DISORDER” (Novartis AG, priority 2018, published 2023).

The assay addresses human PCSK9 (Homo sapiens, UniProt Q8NBP7). Kind of assay: PCSK9 ligand binding TR-FRET assay (interference with binding of human PCSK9 to human LDLR). Particulars: for Max % inhibition: PCSK9 FRET assay, efficacy (Amax), 100% = 1 uM unlabeled human PCSK9, 0% = DMSO. The procedure, abridged: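 Threefold compound dilutions were pre-incubated 30 min with PCSK9, after which 4 nM Europium Kryptate-tagged human LDLR ectodomain was added for a further 2 h.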

The mark [1] stands for this setting: TR-FRET, human PCSK9 Alexa Fluor 647 / human LDLR extracellular domain-Europium Kryptate, read-out: PCSK9 FRET Assay IC50.

pIC50: −log10 of the molar value. Where two headings read alike, the source gives them in different places.

As for `COC[C@@H]1NC(=O)[C@@H](CCN(C)C)N(Cc2ccc(Cl)cc2Oc2ccc(-c3cnc(CN(C)C)n3C)cc2)C(=O)C[C@@H](Cc2ccccc2)C(=O)N(C)[C@H]2CCCC[C@@H]2NC(=O)C[C@H](Cc2ccc(Cl)cc2)N(C)C1=O` [Compound 288, (4S,7S,10R,14R,16aS,20aS)-14-benzyl-11-(4-chloro-2-(4-(2-((dimethylamino)methyl)-1-methyl-1H-imidazol-5-yl)phenoxy)benzyl)-4-(4-chlorobenzyl)-10-(2-(dimethylamino)ethyl)-7-(methoxymethyl)-5,16-dimethylhexadecahydrobenzo[l][1,4,7,11,14]pentaazacyclooctadecine-2,6,9,12,15(3H)-pentaone], the Max % inhibition is given as 87.05%. In addition, the pIC50 under setting [1] was 7.62.

As for `COC[C@@H]1NC(=O)[C@H](C)N(Cc2ccc(Cl)cc2Oc2ccc(-c3cnc(CN(C)C)n3C)cc2)C(=O)C[C@@H](Cc2ccccc2)C(=O)N(C)[C@@H]2CCOC[C@H]2NC(=O)C[C@H](Cc2ccc(Cl)cc2)N(C)C1=O` [Compound 224, (4S,7S,10S,14R,16aR,20aS)-14-benzyl-11-(4-chloro-2-(4-(2-((dimethylamino)methyl)-1-methyl-1H-imidazol-5-yl)phenoxy)benzyl)-4-(4-chlorobenzyl)-7-(methoxymethyl)-5,10,16-trimethyltetradecahydro-1H-pyrano[3,4-l][1,4,7,11,14]pentaazacyclooctadecine-2,6,9,12,15(3H)-pentaone], the Max % inhibition was determined as 95.15%. Under setting [1], the pIC50 was 6.19.

Consider `C[C@H]1C(=O)N[C@@H](COC(=O)C(C)(C)C)C(=O)N(C)[C@@H](Cc2ccc(Cl)cc2)CC(=O)N[C@H]2CCCC[C@@H]2N(C)C(=O)[C@H](Cc2ccccc2)CC(=O)N1Cc1ccc(Cl)cc1Oc1ccc(-c2cnc(CN(C)C)n2C)cc1` [Compound 226, ((4S,7S,10S,14R,16aS,20aS)-14-benzyl-11-(4-chloro-2-(4-(2-((dimethylamino)methyl)-1-methyl-1H-imidazol-5-yl)phenoxy)benzyl)-4-(4-chlorobenzyl)-5,10,16-trimethyl-2,6,9,12,15-pentaoxodocosahydrobenzo[l][1,4,7,11,14]pentaazacyclooctadecin-7-yl)methyl pivalate], for which the Max % inhibition was determined as 42.24%. Besides, under setting [1], the pIC50 was 6.60.

In the case of `COC[C@@H]1NC(=O)[C@H](C)N(Cc2cccnc2Oc2ccc(-c3cnc(CN(C)C)n3C)cc2)C(=O)C[C@@H](Cc2ccccc2)C(=O)N(C)[C@@H](C)CNC(=O)C[C@H](Cc2ccc(Cl)cc2)N(C)C1=O` [Compound 210, (2S,5S,8S,13S,16R)-16-benzyl-8-(4-chlorobenzyl)-1-((2-(4-(2-((dimethylamino)methyl)-1-methyl-1H-imidazol-5-yl)phenoxy)pyridin-3-yl)methyl)-5-(methoxymethyl)-2,7,13,14-tetramethyl-1,4,7,11,14-pentaazacyclooctadecane-3,6,10,15,18-pentaone], the Max % inhibition was 91.38%. Moreover, under setting [1], the pIC50 is 7.83.

Turning to `COC[C@@H]1NC(=O)[C@H](C)N(Cc2ccc(Cl)cc2Oc2ccc(-c3cnc(C(C)O)n3C)cc2)C(=O)C[C@@H](Cc2ccccc2)C(=O)N(C)[C@@H](C)CNC(=O)C[C@H](Cc2ccc(Cl)cc2)N(C)C1=O` (stereo partly drawn) [Compound 167, (2S,5S,8S,13S,16R)-16-benzyl-1-(4-chloro-2-(4-(2-(1-hydroxyethyl)-1-methyl-1H-imidazol-5-yl)phenoxy)benzyl)-8-(4-chlorobenzyl)-5-(methoxymethyl)-2,7,13,14-tetramethyl-1,4,7,11,14-pentaazacyclooctadecane-3,6,10,15,18-pentaone], the Max % inhibition was determined as 81.26%. Moreover, the negative logarithm of the IC50 (pIC50) under setting [1] is 8.74.

For `COC[C@@H]1NC(=O)[C@H](C)N(Cc2ccc(Cl)cc2Oc2ccc(-c3cnc(CN(C)C)n3C)cc2)C(=O)C[C@@H](C)C(=O)N(C)[C@@H](CC2CC2)CNC(=O)C[C@H](Cc2ccc(Cl)cc2)N(C)C1=O` [Compound 5, (2S,5S,8S,13S,16R)-1-(4-chloro-2-(4-(2-((dimethylamino)methyl)-1-methyl-1H-imidazol-5-yl)phenoxy)benzyl)-8-(4-chlorobenzyl)-13-(cyclopropylmethyl)-5-(methoxymethyl)-2,7,14,16-tetramethyl-1,4,7,11,14-pentaazacyclooctadecane-3,6,10,15,18-pentaone], the Max % inhibition came to 83.48%. Also, the pIC50 under setting [1] was 8.02.

Take `COC[C@@H]1NC(=O)[C@H](C)N(Cc2ccc(Cl)cc2Oc2ccc(-c3cncc(C4CCC(NCCF)CC4)c3)cc2)C(=O)C[C@@H](Cc2ccccc2)C(=O)N(C)[C@@H](C)CNC(=O)C[C@H](Cc2ccc(Cl)cc2)N(C)C1=O` (stereo partly drawn): the pIC50 was 8.57.

Turning to `COC[C@@H]1NC(=O)[C@H](C)N(Cc2ccc(C(F)(F)F)cc2Oc2ccc(-c3cnc(CN4CCCC4)n3C)cc2)C(=O)C[C@@H](Cc2ccccc2)C(=O)N(C)[C@@H](C)CNC(=O)C[C@H](Cc2ccc(Cl)cc2)N(C)C1=O` [Compound 80, (2S,5S,8S,13S,16R)-16-benzyl-8-(4-chlorobenzyl)-5-(methoxymethyl)-2,7,13,14-tetramethyl-1-(2-(4-(1-methyl-2-(pyrrolidin-1-ylmethyl)-1H-imidazol-5-yl)phenoxy)-4-(trifluoromethyl)benzyl)-1,4,7,11,14-pentaazacyclooctadecane-3,6,10,15,18-pentaone], the Max % inhibition turned out to be 103.62%. In addition, under setting [1], the pIC50 is 8.20.

`COC[C@@H]1NC(=O)[C@H](C)N(Cc2ccc(Cl)cc2Oc2ccc(-c3cnc(CN(C)C)n3C)cc2)C(=O)C[C@@H](Cc2ccccn2)C(=O)N(C)[C@@H](C)[C@H](C)NC(=O)C[C@H](Cc2ccc(Cl)cc2)N(C)C1=O` [Compound 295, (2S,5S,8S,12S,13S,16R)-1-(4-chloro-2-(4-(2-((dimethylamino)methyl)-1-methyl-1H-imidazol-5-yl)phenoxy)benzyl)-8-(4-chlorobenzyl)-5-(methoxymethyl)-2,7,12,13,14-pentamethyl-16-(pyridin-2-ylmethyl)-1,4,7,11,14-pentaazacyclooctadecane-3,6,10,15,18-pentaone]: the Max % inhibition was 101.64%. Under setting [1], the pIC50 is 8.74.

Turning to `COC[C@@H]1NC(=O)[C@H](C)N(Cc2ccc(F)cc2Oc2ccc(-c3cnc(CN(C)C)n3C)cc2)C(=O)C[C@@H](Cc2ccccc2)C(=O)N(C)[C@H]2CCCC[C@@H]2NC(=O)C[C@H](Cc2ccc(Cl)cc2)N(C)C1=O` [Compound 48, (4S,7S,10S,14R,16aS,20aS)-14-benzyl-4-(4-chlorobenzyl)-11-(2-(4-(2-((dimethylamino)methyl)-1-methyl-1H-imidazol-5-yl)phenoxy)-4-fluorobenzyl)-7-(methoxymethyl)-5,10,16-trimethylhexadecahydrobenzo[l][1,4,7,11,14]pentaazacyclooctadecine-2,6,9,12,15(3H)-pentaone], the Max % inhibition stood at 87.82%. Further, the pIC50 under setting [1] was 8.32.

With `COC[C@@H]1NC(=O)[C@H](C)N(Cc2ccc(Cl)cc2Oc2ccc(-c3cnc(CN4CCCC4)n3C)cc2)C(=O)C[C@@H](Cc2ccc(F)cc2)C(=O)N(C)[C@@H](C)CNC(=O)C[C@H](Cc2ccc(Cl)cc2)N(C)C1=O` [Compound 108, (2S,5S,8S,13S,16R)-1-(4-chloro-2-(4-(1-methyl-2-(pyrrolidin-1-ylmethyl)-1H-imidazol-5-yl)phenoxy)benzyl)-8-(4-chlorobenzyl)-16-(4-fluorobenzyl)-5-(methoxymethyl)-2,7,13,14-tetramethyl-1,4,7,11,14-pentaazacyclooctadecane-3,6,10,15,18-pentaone], the Max % inhibition was found to be 99.73%. Besides, under setting [1], the negative logarithm of the IC50 (pIC50) was 9.15.

By pIC50 is commonly meant −log10 of the IC50, conventionally taken in molar units.
